Laboratory results from patent publication US20220389377A1, “TREATMENT OF MEDICAL CONDITIONS BY STEM CELL TRANSPLANTS AND STEM CELL ACTIVATION” (Vitro Biopharma, Inc., priority 2021, published 2022).
Read-outs that look alike come from different tables or passages of the source.

What was measured:
human MSCs [1] = assay: cells; settings: for effect on MSC migration induced by curcumin and quercetin / effect on MSC migration induced by curcumin and resveratrol: 20 μM AMD3100 or 15 μM GM6001; for effect on MSC migration induced by Li-VPA: both AMD 3100 and GM6001 present; for EC50: Homo sapiens
Description: (§1) FIG. 1 is a microphotograph depicting cell migration using fluorescent readout and cell tracker green as a fluorescent marker of human UC-MSCs. […] The EC50 was determined as a measure of effectiveness of activating agents. […] An initial analysis of the cell free zone using Image J software was used to screen concentrations of activating agents for dose-response determination in further experiments.
(§2) The cell migration assays described above were set up as follows: One million cells/cell line were resuspended in 10 mL MSC-Gro™ serum free, quiescent medium (Vitro Biopharma Cat. No. SCO0B17) containing 5 μg/mL mitomycin C (Sigma, Cat. No. M4287) to inhibit proliferation and incubated for 2 hours at room temperature with end-to-end agitation at 7 RPM.
In some experiments, curcumin was used at 1 μM to block proliferation. Cells were centrifuged (450×g) for 7 minutes, washed with PBS and then resuspended in 1 mL MSC-Gro™ low serum, complete medium (Vitro Biopharma Cat. No. SCO0B1) and plated at 25,000 cells/well in black 96 well, TC-coated cell culture plates (ThermoScientific, Cat. No. 165305) containing cell seed-stoppers (Platypus, Cat. No. CMAUFL4) to form a cell free zone at the center of the well and incubated in 5% CO2, 1% O2, 94% N2 at 37° C. in a humidified chamber for 24 hrs. Plates used for culture of NSCs were first treated with 10 μg/mL fibronectin (Sigma, Cat. No. F0556) for 2 hours at 37° C. Following washout with PBS (3×), cell seed stoppers were inserted, NSCs were plated at 25,000/well and incubated in 5% CO2, 1% O2, 94% N2 at 37° C. in a humidified chamber for 48 hrs.
For studies of the effects of CXCR4 and MMP-9 inhibition following 24 hours of cell culture, appropriate wells were dosed with 15 μM GM6001 and 20 μM AMD3100 for 6 hours. Cells were washed once with PBS then incubated in serum free, MSC-Gro™ (Vitro Biopharma Cat. No. SCO0B17) containing 5 μM Cell Tracker Green CIVIFDA (Molecular Probes, Cat. No. C7025) at 37° C. for 30 minutes. The wells were then washed with serum free, MSC-Gro™ (Vitro Biopharma Cat. No. SCO0B17) and incubated for 30 minutes at 37° C. Cells were washed once with PBS and this was replaced with MSC-Gro™ serum free, quiescent medium (Vitro Biopharma Cat. No. SCO0B17) containing different concentrations of activating agents. […] A TopSeal (PerkinElmer, Cat. No. 6050195) covered the plate for live-cell imaging in a BioTek Cytation3 imaging reader. Kinetic data was acquired every 2 hrs for 24 hrs using a GFP filter and bright field data acquisition. The gas phase throughout the acquisition of kinetic data was 5% O2, 5% CO2 with the balance nitrogen maintained by a BioTek CO2/O2 gas controller. Images were saved as TIFF files to calculate percent closure using imaging data.

human MSCs [2] = assay: Gene expression analysis by qPCR in human MSCs; type: cell-based; settings: for expression levels of FGF-21, CXCR4 and Hsp70 / expression of Oct 3/4 / expression of SIRT-1: 250 μM VPA, 500 nM curcumin, FIG. 13
Description: Beta actin was measured as a house-keeping gene. […] Gene expression was quantified by determining the amount of gene-specific DNA/total cDNA. Data is mean+/−SD of 4 replicates.
Native human umbilical cord-derived MSCs (Vitro Biopharma Cat. No. SC00A1) were expanded from cryopreservation in T-25 TC-coated flasks (BD Falcon, Cat. No. 353108) in MSC-Gro™ low serum, complete medium (Vitro Biopharma Cat. No. SCO0B1). Cells were sub-cultured and counted on a Beckerman-Coulter Z2 particle counter (range 10 μm-30 μm). Cells were plated at 10,000/cm^2 a TC-coated Greiner Bio-One T75 flask and maintained in MSC-Gro™ serum free, complete medium (Vitro Biopharma Cat. No. SCO0B3) in a reduced O2 environment (1% O2, 5% CO2, 94% N2) at 37° C. in a humidified chamber. The MSCs were treated continuously for up to 2 weeks. Cultures were fed every 3 days. Cells were harvested using Accutase (Innovative Cell Technologies Inc., Cat No AT-104) and centrifuged (450×g) for 7 minutes. Cell supernatant was aspirated off and cells were resuspended in 1 mL PBS and counted on a Beckerman-Coulter Z2 particle counter (range 10 μm-30 μm). Total RNA was extracted using RNeasy mini kit (Qiagen Cat. No. 74104). RNA was quantified using an absorbance measurement at 260 nm. RNA was converted to cDNA using Quantitect reverse transcription kit (Qiagen Cat. No. 205310) in a thermocycler. RNA was incubated in the gDNA elimination reaction for 2 minutes at 42° C. then incubated in the reverse-transcription master mix for 15 minutes at 42° C. Immediately after, it was incubated at 95° C. for 3 minutes for inactivation. cDNA was sent to an outside lab (CU-Anschutz Metabolic Laboratory) for q-PCR to detect relative or absolute gene expression levels. cDNA was diluted 1:5 and an iTaq Universal Supermix fluorescent probe (BioRad Cat. No. 172-5120) used to detect the threshold cycle (Ct) during PCR Dilution factors and cDNA concentrations were calculated into recorded values then normalized to untreated hMSCs (Vitro Biopharma Cat. No. SC00A1).
Gene expression was quantified by determining the amount of gene-specific DNA/total cDNA. Data is mean+/−SD of 4 replicates.
Native human umbilical cord-derived MSCs (Vitro Biopharma Cat. No. SC00A1) were expanded from cryopreservation in T-25 TC-coated flasks (BD Falcon, Cat. No. 353108) in MSC-Gro™ low serum, complete medium (Vitro Biopharma Cat. No. SCO0B1). Cells were sub-cultured and counted on a Beckerman-Coulter Z2 particle counter (range 10 μm-30 μm). Cells were plated at 10,000/cm2 a TC-coated Greiner Bio-One T75 flask and maintained in MSC-Gro™ serum free, complete medium (Vitro Biopharma Cat. No. SCO0B3) in a reduced O2 environment (1% O2, 5% CO2, 94% N2) at 37° C. in a humidified chamber. The MSCs were treated continuously for up to 2 weeks. Cultures were fed every 3 days. Cells were harvested using Accutase (Innovative Cell Technologies Inc., Cat No AT-104) and centrifuged (450×g) for 7 minutes. Cell supernatant was aspirated off and cells were resuspended in 1 mL PBS and counted on a Beckerman-Coulter Z2 particle counter (range 10 μm-30 μm).
Total RNA was extracted using RNeasy Mini Kit (Qiagen Cat. No. 74104). RNA was quantified using an absorbance measurement at 260 nm. RNA was converted to cDNA using Quantitect reverse transcription Kit (Qiagen Cat. No. 205310) in a thermocycler. RNA was incubated in the DNA elimination reaction for 2 minutes at 42° C. then incubated in the reverse-transcription master mix for 15 minutes at 42° C. Immediately after, it was incubated at 95° C. for 3 minutes for inactivation. cDNA was sent to an outside lab (CU-Anschutz Metabolic Laboratory) for q-PCR to detect relative or absolute gene expression levels. cDNA was diluted 1:5 and an iTaq Universal Supermix fluorescent probe (BioRad Cat. No. 172-5120) was used to detect the threshold cycle (Ct) during PCR.

human fibroblast = settings: read-out: EC50 of human fibroblast migration induced by Substance P (prior study); suspension culture system; Parenti et al. 1996; cited from earlier work
human NSCs = assay: Cell migration assay, human NSCs; type: cell-based; settings: read-out: EC50 of VPA for NSC migration in 200 μM lithium, increasing VPA in 200 μM lithium, FIG. 6
Description: as §1, §2
In some experiments, curcumin was used at 1 μM to block proliferation. […]
For studies of the effects of CXCR4 and MMP-9 inhibition following 24 hours of cell culture, appropriate wells were dosed with 15 μM GM6001 and 20 μM AMD3100 for 6 hours. […] A TopSeal (PerkinElmer, Cat. No. 6050195) covered the plate for live-cell imaging in a BioTek Cytation3 imaging reader. […]

MSCs = assay: Presto Blue proliferation assay, MSCs; type: cell-based; settings: Homo sapiens
Description: (§3) Example 5: Effects of lithium and VPA on stem cell proliferation: The effects of lithium and VPA on stem cell proliferation were then investigated using an assay based on Presto Blue, a fluorescent marker of cellular reduction. FIG. 8 is a line graph representation illustrating proliferation of different cell lines induced by increasing concentrations of FGF-b (FGF-2) after a 5 day exposure. Relative fluorescent units were measured using a FITC filter on a Modulus microplate reader and plotted as a function of FGF-2. The data was modeled by sigmoidal curve fitting to calculate EC50 values. […] Proliferation of these mesenchymal cells was stimulated by recombinant human FGF-2 with EC50 values in the range of 3 to 6 ng/ml with maximal proliferative responses at about 10 ng/ml.
The proliferative effects of lithium and VPA were compared, either alone or in combination to MSC proliferation. The results are shown in FIG. 9, which is a line graph representation illustrating proliferation of MSCs induced by lithium, VPA and VPA in 200 μM lithium after a 5 day exposure. Relative fluorescent units were measured using a FITC filter on a Modulus microplate reader and plotted as a function of FGF-2. The data was modeled by sigmoidal curve fitting to calculate EC50 values.

NSCs = assay: Presto Blue proliferation assay, NSCs; type: cell-based; settings: Homo sapiens, 120 h, read-out: EC50 of VPA for NSC proliferation in 200 μM lithium, 5 day exposure, FIG. 10
Description: as §3
The proliferative responses of MSCs and NSCs were compared to Li-VPA. The results are shown in FIG. 10, which is a line graph representation illustrating proliferation of MSCs and NSCs as a function of increasing VPA in 200 μM lithium after a 5 day exposure. Relative fluorescent units were measured using a FITC filter on a Modulus microplate reader and plotted as a function of FGF-2. The data was modeled by sigmoidal curve fitting to calculate EC50 values. […] This may reflect intrinsic proliferative capacity. […]

[3] = system: CAFs, primary fibroblasts and MSCs; assay: Presto Blue proliferation assay, CAFs, primary fibroblasts and MSCs (FGF-2 validation); type: cell-based, human; settings: 5 day exposure
Description: as §3

[4] = Example 6, 31.25 μM VPA, 200 μM lithium, FIG. 11

## c1cc(CN2CCCNCCNCCCNCC2)ccc1CN1CCCNCCNCCCNCC1 [AMD3100]
Human MSCs [1]; 20 μM AMD3100, CXCR4 inhibitor, FIG. 7
  effect on VPA-induced MSC migration: blocked
Human MSCs [1]; FIG. 14
  effect on MSC migration induced by curcumin and quercetin: blocked MSC migration
Human MSCs [1]; FIG. 15
  effect on MSC migration induced by curcumin and resveratrol: blocked MSC migration
Human MSCs [1]; FIG. 7
  effect on MSC migration induced by Li-VPA: blocked

## CNC(=O)[C@H](Cc1c[nH]c2ccccc12)NC(=O)[C@@H](CC(=O)NO)CC(C)C [GM6001]
Human MSCs [1]; 15 μM GM6001, MMP-9 inhibitor, FIG. 7
  effect on lithium-induced MSC migration: blocked
Human MSCs [1]; FIG. 14
  effect on MSC migration induced by curcumin and quercetin: blocked MSC migration
Human MSCs [1]; FIG. 15
  effect on MSC migration induced by curcumin and resveratrol: blocked MSC migration
Human MSCs [1]; FIG. 7
  effect on MSC migration induced by Li-VPA: blocked

## CCCC(=O)[O-].[Na+] [Na butyrate]
Human MSCs [2]; Example 8
  expression levels of FGF-21, CXCR4 and Hsp70: lower levels
  expression of Oct 3/4: less expression activation
  expression of SIRT-1: significantly less effective

## CSCC[C@H](NC(=O)[C@H](CC(C)C)NC(=O)CNC(=O)[C@H](Cc1ccccc1)NC(=O)[C@H](Cc1ccccc1)NC(=O)[C@H](CCC(N)=O)NC(=O)[C@H](CCC(N)=O)NC(=O)[C@@H]1CCCN1C(=O)[C@H](CCCCN)NC(=O)[C@@H]1CCCN1C(=O)[C@@H](N)CCCNC(=N)N)C(N)=O [Substance P]
Human MSCs [1]; 3.7 nM Substance P, 24 hours
  MSC migration into cell-free center of the well: induced MSC migration into the cell-free center of the well
Human MSCs [1]; Substance P from 0 to 18.5 nM, 24-hour live cell analysis
  MSC migration (percent closure) dose-response: migration increased in a dose-dependent manner
Human fibroblast
  EC50: 0.0022 µM

## CC(/C=C/C(=O)NO)=C\[C@@H](C)C(=O)c1ccc(N(C)C)cc1 [TSA]
Human MSCs [2]; Example 8
  expression levels of FGF-21, CXCR4 and Hsp70: lower levels
  expression of Oct 3/4: less expression activation
  expression of SIRT-1: significantly less effective

## CCCC(CCC)C(=O)O [VPA, valproic acid]
Human MSCs [1]; read-out: EC50 of MSC migration, agent alone, percent closure, sigmoidal curve fit, FIG. 5
  EC50: 38.5 µM
Human MSCs [1]; read-out: EC50 of VPA for MSC migration in 200 μM lithium, increasing VPA in 200 μM lithium
  EC50: 33 µM
Human MSCs [1]; agent alone, FIG. 5
  concentration of maximal migration / maximum closure: 100 µM
Human NSCs
  EC50: 35.2 µM
MSCs; 200 μM lithium, MSCs and NSCs, proliferation and migration, read-out: VPA concentration 50% effective in inducing cell proliferation and migration (mean)
  EC50: 37 µM
MSCs; 200 μM lithium, MSCs and NSCs, proliferation and migration, read-out: VPA concentration 50% effective in inducing cell proliferation and migration (range)
  EC50: 35 to 39 µM
MSCs; 120 h, 5 day exposure, FIG. 9, read-out: EC50 of MSC proliferation, agent alone
  EC50: 47.7 µM
MSCs; 120 h, read-out: EC50 of VPA for MSC proliferation in 200 μM lithium, 5 day exposure, 200 μM lithium
  EC50: 63.3 µM
NSCs
  EC50: 36.8 µM
Human MSCs [2]; [4]
  expression of Oct 3/4 compared to untreated human MSCs: about 20 fold
  expression of SIRT-1 compared to untreated MSC: ~300 fold
Human MSCs [2]; Example 8
  expression of Oct 3/4: about 20 fold
  expression of SIRT-1: ~300 fold

## COc1cc(/C=C/C(=O)CC(=O)/C=C/c2ccc(O)c(OC)c2)ccc1O [curcumin]
Human MSCs [1]; 36 h, read-out: apparent EC50 of curcumin-induced migration, MSCs, percent closure after 36-hour run
  EC50: 0.25 µM
Human MSCs [1]; human MSCs, 36-hour run
  concentration at which curcumin induced migration: less than 1 μM
Human MSCs [1]; human, 36 h
  estimated LD50 (apparent toxicity, reduced cell number): 3 µM
Human MSCs [2]; Example 8, 500 nM curcumin vs 250 μM VPA
  expression of Oct 3/4, SIRT-1, FGF21, CXCR4 and Hsp70 as compared to VPA: equivalent or increased expression
Human MSCs [2]; Example 8
  expression of Oct 3/4: about 20 fold
  expression of SIRT-1: ~300 fold

## O=c1c(O)c(-c2ccc(O)c(O)c2)oc2cc(O)cc(O)c12 [quercetin]
Human MSCs [1]; read-out: EC50 of quercetin for MSC migration in 500 nM curcumin, 500 nM curcumin, FIG. 14
  EC50: 0.317 µM

## Oc1ccc(C=Cc2cc(O)cc(O)c2)cc1 [resveratrol]
Human MSCs [1]; read-out: EC50 of resveratrol for MSC migration in 500 nM curcumin, 500 nM curcumin, FIG. 15
  EC50: 0.253 µM

## CCCCC(=O)O [valeric acid]
Human MSCs [2]; Example 8
  expression levels of FGF-21, CXCR4 and Hsp70: lower levels
  expression of Oct 3/4: less expression activation
  expression of SIRT-1: significantly less effective

## FGF-2: recombinant human FGF-2, member of the family of fibroblast growth factors
[3]
  concentration of maximal proliferative responses: about 10 ng/ml
